One assay deals with T1, luxN^T159I/Y193K (Vibrio campbellii, UniProt A7MRY4, N193K/T159I).
T1 sequence (A7MRY4 1-849 T159I/N193K): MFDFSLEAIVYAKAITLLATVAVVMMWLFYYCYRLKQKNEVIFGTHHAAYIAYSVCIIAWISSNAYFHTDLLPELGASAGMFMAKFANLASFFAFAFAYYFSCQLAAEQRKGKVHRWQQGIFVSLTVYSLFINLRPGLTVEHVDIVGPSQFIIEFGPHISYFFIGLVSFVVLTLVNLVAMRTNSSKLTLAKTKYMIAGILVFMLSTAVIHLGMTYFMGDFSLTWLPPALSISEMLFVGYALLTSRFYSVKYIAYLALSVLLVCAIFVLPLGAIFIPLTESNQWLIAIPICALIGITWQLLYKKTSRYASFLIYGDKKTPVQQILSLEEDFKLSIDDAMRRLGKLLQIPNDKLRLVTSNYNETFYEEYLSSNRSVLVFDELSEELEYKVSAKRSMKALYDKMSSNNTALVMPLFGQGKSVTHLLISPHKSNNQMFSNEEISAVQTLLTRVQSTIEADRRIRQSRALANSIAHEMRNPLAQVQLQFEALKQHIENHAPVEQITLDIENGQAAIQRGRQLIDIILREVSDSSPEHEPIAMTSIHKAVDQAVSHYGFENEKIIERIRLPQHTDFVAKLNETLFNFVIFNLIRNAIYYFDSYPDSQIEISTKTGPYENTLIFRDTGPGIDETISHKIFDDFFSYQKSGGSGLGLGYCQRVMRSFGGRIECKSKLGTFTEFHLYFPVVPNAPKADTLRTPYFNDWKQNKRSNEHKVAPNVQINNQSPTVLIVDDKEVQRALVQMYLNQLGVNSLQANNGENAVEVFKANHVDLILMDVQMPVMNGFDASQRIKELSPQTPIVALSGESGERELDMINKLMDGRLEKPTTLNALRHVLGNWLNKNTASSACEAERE
Kind of assay: Bioluminescence of V. harveyi XK006 carrying luxN T159I/Y193K. Conditions: 10 μM 3O-C10 HSL. Format: cell-based, Vibrio harveyi.

The target of a further assay is luxN^S230P (Vibrio campbellii, UniProt A7MRY4, S230P). Conditions: 10 μM 3O-C10 HSL.
In the next assay the target is T2, luxN^S184I/S230P (Vibrio campbellii, UniProt A7MRY4, S184I/S230P).
T2 sequence (A7MRY4 1-849 S184I/S230P): T1 sequence (A7MRY4 1-849 T159I/N193K) with I159T, S184I, K193N, S230P
Put plainly: Bioluminescence of V. harveyi XK006 carrying luxN S184I/S230P. Format: cell-based, Vibrio harveyi. Conditions: 10 μM 3O-C10 HSL.

The test system of another assay is WT AinR. Kind of assay: Bioluminescence of V. harveyi XK006 harboring WT V. fischeri ainR. The format is cell-based, Vibrio fischeri. The note with it: AHLs added at 1 μM.
The test system of a further assay is AinR^Q204H. Kind of assay: Bioluminescence of V. harveyi XK006 harboring ainR Q204H. The format is cell-based, Vibrio fischeri.
In assay [1] the target is T3, LuxN (Vibrio campbellii, UniProt A7MRY4). The format is cell-based, Vibrio harveyi. The note with it: 1 μM AHL with 20 nM AI-1; V. harveyi TL25.
The next assay concerns the target luxN^L166A/H210N (Vibrio campbellii, UniProt A7MRY4, H210N/L166A). Conditions: AHLs added at 1 μM.
Assay [2] addresses LuxN^L166A mutant with Ser209 (Vibrio campbellii, UniProt A7MRY4, I209S/L166A). Conditions: AHLs added at 1 μM.
The target in the next assay is LuxN^L166A (Vibrio campbellii, UniProt A7MRY4, L166A).
Another assay concerns the target WT LuxN (Vibrio campbellii, UniProt A7MRY4). The note with it: XK006 carrying WT luxN.
For the next assay, the target named is T4, LuxN^H210T (Vibrio campbellii, UniProt A7MRY4, H210T).
T4 sequence (A7MRY4 1-849 H210T): T1 sequence (A7MRY4 1-849 T159I/N193K) with I159T, K193N, H210T
Put plainly: Bioluminescence of V. harveyi XK006 carrying luxN H210T. Format: cell-based, Vibrio harveyi. Conditions: 1 μM AHL.

The subject of a further assay is Kin^off LuxN mutants. Kind of assay: Bioluminescence of V. harveyi XK847 harboring Kin^off luxN alleles. The format is cell-based, Vibrio harveyi.
The target in assay [3] is T3, LuxN. The note with it: 1 μM AHL; V. harveyi TL25.
The target in the next assay is T5, LuxN^H210Q (Vibrio campbellii, UniProt A7MRY4, H210Q).
T5 sequence (A7MRY4 1-849 H210Q): T1 sequence (A7MRY4 1-849 T159I/N193K) with I159T, K193N, H210Q
Kind of assay: Bioluminescence of V. harveyi XK006 carrying luxN H210Q. Format: cell-based, Vibrio harveyi. The note with it: 1 μM AHL.

Where a chain is given by its changes, count along the chain named.

On to `CCCCCCCC(=O)CC(=O)N[C@H]1CCOC1=O` [3O-C10 HSL], for which the “increase in light production” value on luxN^T159I/Y193K is listed as 20 fold; on luxN^S184I/S230P, 10 fold. The “induction of light production” value on luxN^S230P is recorded as 20 fold.
As for `CCCCCC(O)CC(=O)N[C@H]1CCOC1=O` (some centres unmarked) [3OH-C8 HSL], the light production result with WT AinR is given as “light production was induced”; on luxN^L166A/H210N, “Significantly less light”. For the same compound, the entries for the “detection (light production)” value with AinR^Q204H and at LuxN^L166A were “lost the ability to detect” and “robustly detects”, respectively. Also, the “reduction in light production” value at LuxN [1] was “five-fold”. The “ligand detection (light production)” value in assay [2] was “restricted to 3OH-C8 HSL”.
On to `C[C@@H](O)CC(=O)N[C@H]1CCOC1=O` [(S)-3OH-C4 HSL], for which the “response (dose-dependent light production)” value at WT LuxN is recorded as “did not respond”.
Take `CCCC(=O)N[C@H]1CCOC1=O` [C4 HSL]: the “induction of light production” value on LuxN^H210T is given as 100 fold; at LuxN [3], “did not induce light production”; on LuxN^H210Q it was 30 fold. For the same compound, the “light production / detection” value with Kin^off LuxN mutants was “also detected”.

Values taken from article PMC4275348 (Molecular microbiology, 2014).
